From patent US5849326A, “Method for treating neuronal diseases via administration of 2-acylaminopropanol derivatives” (Seikagaku Corporation, priority 1993, dated 1998)
Where “and” joins values, the source holds several entries; their conditions need not be identical. Identical values can stand only once.

Columns and labels:
[1] = tested on: cerebral cortexes of rat fetuses (explants); experiment: Explant culture of cerebral cortexes, neurocytes having neurites
Description: The effect of neurite extension by administering the medicine after the culture was judged by measuring the number of neurocytes having neurites existing in the explants (the cultured tissues).

GSL = conditions: J. Cell. Physiol., vol. 141, pp. 573-583 (1989); cited from earlier work
GD3 synthase = experiment: Enzyme activity in treated cerebral cortex culture: GD3 synthase; assay type: cell-based, rat; conditions: culture treated with 15 μM for 40 hours; 2400 min, 15 µM
Procedure: (§1) After the mixture was cultured for 40 hours, the resulting culture was harvested and pulverized in a homogenized buffer (50 mM Hepes, 0.32M sucrose) by using a chip type sonicator to prepare an enzyme source.
GM3 as an acceptor substrate was reacted with 30 mM CMP-^14 C sialic acid (2.88×10^6 cpm) as a donor substrate. After the mixture containing a reaction product was developed by a reverse phase thin layer plate, a portion corresponding to the reaction product was scratched off, and its radioactivity was counted.

B16 melanoma cells = experiment: Glycolipid biosynthesis (3H-galactose incorporation into GSL); assay type: cell-based; conditions: culture for 24 hours
Procedure: B16 melanoma cells derived from neuroectoderm were charged into a culture plate with 12 wells in an amount of 1×10^5 cells/well and cultured for 24 hours in a Dulbecco modified Eagle's medium containing 10% bovine fetal serum. […] After 24 hours, the medium was removed, the cells were washed with 1 ml of a phosphate buffer containing 0.1% EDTA, 1 ml of 0.25% trypsin was added, and the mixture was left to stand at 37° C. for 5 minutes. […] 4 ml of methanol and chloroform were added successively to the mass of the cells to extract all GSL, followed by evaporation to dryness. The residue was subjected to alkali hydrolysis with chloroform:methanol (1:1) containing 0.2N sodium hydroxide, neutralized with acetic acid and then evaporated to dryness. The product evaporated to dryness was dissolved in water and then desalted with a Sep-Pak C18 cartridge (Waters). The adsorbed GSL was dissolved out by 1 ml of methanol and 4 ml of chloroform:methanol (1:1) and then evaporated to dryness under a nitrogen stream. […] Thereafter, the positions of glucosylceramide, lactosylceramide and ganglioside GM3 were confirmed by iodine coloration, they were scratched off from TLC, respectively, and radioactivities thereof were measured by a liquid scintillation counter.

[2] = tested on: LacCer (lactosylceramide) synthase; experiment: Enzyme activity in treated cerebral cortex culture: LacCer synthase; assay type: cell-based, rat; conditions: culture treated with 15 μM for 40 hours
Procedure: as §1
GlcCer as an acceptor substrate was reacted with 0.315mM UDP (uridine diphosphate)-^3 H galactose (2.7×10^8 cpm) as a donor substrate. After the mixture containing ^3 H-LacCer which was a reaction product was developed by a silica gel thin layer plate, a portion corresponding to the reaction product was scratched off, and its radioactivity was counted.

[3] = tested on: rat cerebral ischemia models; experiment: Antidementia effect in rat cerebral ischemia models (Example 10); assay type: in vivo; conditions: 2×40 mg/kg/day intraperitoneally for 6 days from 24 hours after ischemia; retention trial 12 hours after final administration; 8 rats
Procedure: After 12 hours from the final administration, retention trial was carried out.

[4] = tested on: serine palmitoyltransferase; experiment: Enzyme activity in treated cerebral cortex culture: serine palmitoyltransferase; assay type: cell-based, rat; conditions: culture treated with 15 μM for 40 hours
Procedure: as §1
1.5 mM palmitoyl CoA (coenzyme A) and 0.1 mM ^14 C serine (8.3×10^5 cpm) were reacted in the presence of 0.5 mM pyridoxalphosphoric acid. After 3-keto-sphingosine which was a reaction product was extracted, the extract was concentrated and evaporated to dryness, and its radioactivity was counted.

GM3 synthase = experiment: Enzyme activity in treated cerebral cortex culture: GM3 synthase; assay type: cell-based, rat; conditions: culture treated with 15 μM for 40 hours
Procedure: as §1
After the mixture containing a reaction product was developed by a reverse phase thin layer plate, a portion corresponding to the reaction product was scratched off, and its radioactivity was counted.

[5] = tested on: primary cultured rat cerebral neurocytes; experiment: Ganglioside content (ganglioside-binding sialic acid) of primary cultured neurocytes; assay type: cell-based; conditions: Rattus norvegicus, 72 h, culture for 3 days, control defined as 100%
Procedure: Rat fetuses at the 18th day of pregnancy were taken out, and forebrain base portions of the fetuses were extracted aseptically and cut into small pieces by scissors. After the pieces were treated with papain (in a phosphate buffer containing 0.02% L-cysteine containing 180 U papain, 0.02% bovine serum albumin and 0.5% glucose, pH 7.4, at 37° C. for 30 minutes), they were washed with a mixed solution (DF medium) of 1:1 of a Dulbecco modified Eagle's medium and a Ham's F12 medium and suspended in a DF medium containing 5% bovine fetal serum and 5% equine serum. This neurocyte suspension was charged into a culture plate with 24 wells (Falcon, Primaria) in an amount of 1×10^6 cells/well. […] After completion of the culture, the cells in the respective wells were washed with a phosphate buffer and recovered by rubber policeman. Further, a ganglioside fraction was extracted by adding chloroform/methanol/water (1:2:0.8) and shaking the mixture for 5 minutes. […] The no addition group (control) which was defined as 100% was compared with the test groups, and the results are shown in Table 1.

[6] = tested on: primary cultured rat cerebral neurocytes (hippocampal neurons); experiment: Neurite extension of primary cultured hippocampal neurocytes
Procedure: Hippocampi of rat brains at the 0th day after birth were extracted aseptically, subjected to enzyme treatment with papain in the same manner as in Example 1 and then washed with a DF medium. […] After culture for 24 hours, the neurocytes were fixed by paraformaldehyde, and a degree of neurite extension was recorded by microphotographs and then observed.

physchem = conditions: physiological saline
[7] = tested on: acyl-CoA: sphingosine N-acyltransferase; experiment: Enzyme activity in treated cerebral cortex culture: acyl-CoA: sphingosine N-acyltransferase; assay type: cell-based, rat; parameters: key: *: No accelerating activity; conditions: culture treated with 15 μM for 40 hours
Procedure: as §1
0.25 mM sphingosine and 0.45 mM ^14 C palmitoyl CoA (8.3×10^5cpm) were reacted in the presence of ATP (adenosine 5'-triphosphate). After ceramide which was a reaction product was subjected to solvent extraction, the extract was concentrated and evaporated to dryness, and its radioactivity was counted.

ICR mice = experiment: General toxicity, continuous 10-day intraperitoneal administration; assay type: in vivo; conditions: 100 mg/kg/day intraperitoneally for 10 days
[8] = tested on: rat cerebral cortex neurocytes; experiment: Synapse formation measured as frequency of intracellular Ca2+ fluctuation; assay type: cell-based
Description: Further, as a method of measuring synapse formation relatively simply and easily, there has been developed a multipoint observation system of Ca^2+ in neurocytes using Fura-2, and it has been confirmed that the number of synapse formation is in direct proportion to frequency of intracellular Ca^2+ fluctuation in synchronization therewith (Br. J. Pharmacol., 89, 191-198, 1986; Neurosci. Lett., 78, 69-74, 1987). We investigated influences of L-threo-FDMP and D-threo-PDMP exerted on synapse formation between rat cerebral cortex neurocytes by using this method, and the results are shown below.

CCCCCCCCCC(=O)N[C@@H](CN1CCOCC1)[C@@H](O)c1ccccc1 [L-threo-PDMP, 1-phenyl-2-decanoylamino-3-morpholino-1-propanol]
number of neurocytes having neurites in the explants versus group to which no medicine was administered ([1]; 10 μM, cultured for 2 days, medium containing no serum): about one and half times
concentration range in which a pharmaceutical effect has been observed ([1]; culture of cerebral cortex pieces of rat fetuses): 5 to 20 µM
biosynthesis of GSL (GSL): has possibility of accelerating biosynthesis of GSL
Accelerating activity when enzyme activity of control is defined as 100%: GD3 synthase (GD3 synthase): 300% and 302.5%
concentration at which a pharmaceutical effect has been observed (B16 melanoma cells): 25 µM
Accelerating activity when enzyme activity of control is defined as 100%: LacCer synthase [2]: 243.3%
rats recovered to a normal level [3]: 50%
Accelerating activity when enzyme activity of control is defined as 100%: Serine palmitoyltransferase [4]: 148.2%
Accelerating activity when enzyme activity of control is defined as 100%: GM3 synthase (GM3 synthase): 197.4%
activity at 20 µM [5]: 127%
neurite extension (microphotographs) ([6]; 5 μM, 20 μM and 40 μM, culture for 24 hours, FIG. 2): significant neurite-extending action
lengths of the neurites, statistical processing ([6]; 1 to 40 μM, FIG. 3): accelerates neurite extension with a significant different of P<0.005
solubility (physchem): ≤ 500 µg/mL
Accelerating activity when enzyme activity of control is defined as 100%: Acyl-CoA: sphigosine N-acyltransferase [7]: *
decrease in weight / decrease in neutrophile, acidocyte due to suppression of bone marrow (ICR mice; in Myrj 52): neither decrease in weight nor decrease in neutrophile, acidocyte, etc. due to suppression of bone marrow was observed
abnormality on observation for 3 months (ICR mice; observation for 3 months): no abnormality was observed
number of synapse formation (frequency of intracellular Ca2+ fluctuation) ([8]; FIG. 4): increase in the number of synapse formation depending on a dose
concentration at which a pharmaceutical effect has been observed ([8]; culture for 8 hours, neurocytes of cerebral cortexes of rat fetuses): 40 µM
